The values that follow come from ChEMBL document CHEMBL2074142, “Interaction of anionic cephalosporins with the intestinal and renal peptide transporters PEPT 1 and PEPT 2” (Biochim Biophys Acta, 1997).

Common to all, as to assay type: functional, cell-based
Series [1] has as its target T1, Solute carrier family 15 member 2 (Homo sapiens) (UniProt Q16348).
T1 sequence (whole entry): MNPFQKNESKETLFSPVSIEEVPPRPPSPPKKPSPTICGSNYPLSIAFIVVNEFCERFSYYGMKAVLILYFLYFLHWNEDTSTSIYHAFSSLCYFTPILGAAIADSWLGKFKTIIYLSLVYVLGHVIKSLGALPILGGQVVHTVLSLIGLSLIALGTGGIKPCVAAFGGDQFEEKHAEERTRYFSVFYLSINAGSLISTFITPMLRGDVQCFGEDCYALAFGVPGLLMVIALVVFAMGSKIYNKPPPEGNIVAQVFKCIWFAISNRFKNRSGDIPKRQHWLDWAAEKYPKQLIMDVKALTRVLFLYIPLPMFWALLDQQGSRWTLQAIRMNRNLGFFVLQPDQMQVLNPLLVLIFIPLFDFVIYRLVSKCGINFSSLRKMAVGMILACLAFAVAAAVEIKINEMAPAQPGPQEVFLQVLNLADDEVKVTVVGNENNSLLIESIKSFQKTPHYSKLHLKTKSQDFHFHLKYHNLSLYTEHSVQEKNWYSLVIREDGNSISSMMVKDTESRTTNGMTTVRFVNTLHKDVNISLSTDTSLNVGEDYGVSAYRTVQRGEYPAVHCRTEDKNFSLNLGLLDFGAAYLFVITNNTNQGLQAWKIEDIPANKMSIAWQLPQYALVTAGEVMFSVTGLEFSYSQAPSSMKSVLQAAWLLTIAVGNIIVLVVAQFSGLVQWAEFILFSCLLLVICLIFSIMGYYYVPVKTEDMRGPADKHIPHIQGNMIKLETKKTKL
Kind of series: TP_TRANSPORTER: inhibition of Gly-Sar uptake (Gly-Sar: 50 uM, Cefdinir: 10000 uM) in PEPT2-expressing HeLa cells.

In series [2] the target is T2, Solute carrier family 15 member 1 (Homo sapiens) (UniProt P46059).
T2 sequence (whole entry): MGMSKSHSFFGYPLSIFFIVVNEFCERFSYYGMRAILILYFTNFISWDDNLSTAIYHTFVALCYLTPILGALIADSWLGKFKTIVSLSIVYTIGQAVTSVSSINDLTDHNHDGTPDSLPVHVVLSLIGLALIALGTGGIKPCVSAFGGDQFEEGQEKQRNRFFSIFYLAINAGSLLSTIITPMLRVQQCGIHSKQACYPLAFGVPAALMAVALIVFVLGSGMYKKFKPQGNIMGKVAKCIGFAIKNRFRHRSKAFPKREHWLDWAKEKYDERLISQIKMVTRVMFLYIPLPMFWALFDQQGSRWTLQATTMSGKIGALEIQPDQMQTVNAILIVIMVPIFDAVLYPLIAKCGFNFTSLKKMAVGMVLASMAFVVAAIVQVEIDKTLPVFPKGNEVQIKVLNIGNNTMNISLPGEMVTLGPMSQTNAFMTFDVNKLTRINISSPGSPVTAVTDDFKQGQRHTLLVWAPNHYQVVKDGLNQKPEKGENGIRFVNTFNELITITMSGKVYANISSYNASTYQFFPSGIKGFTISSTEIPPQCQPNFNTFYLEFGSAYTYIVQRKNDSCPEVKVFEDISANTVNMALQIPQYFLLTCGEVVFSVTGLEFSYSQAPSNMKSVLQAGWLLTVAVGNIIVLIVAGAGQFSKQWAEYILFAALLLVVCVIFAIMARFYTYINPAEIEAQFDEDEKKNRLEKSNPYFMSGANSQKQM
Nature of the series: TP_TRANSPORTER: inhibition of Gly-Sar uptake (Gly-Sar: 20 uM, Cefdinir: 10000 uM) in PEPT1-expressing HeLa cells.

The target in series [3] is T3, Solute carrier family 15 member 2 (Rattus norvegicus, UniProt Q63424).
T3 sequence (Q63424 whole entry): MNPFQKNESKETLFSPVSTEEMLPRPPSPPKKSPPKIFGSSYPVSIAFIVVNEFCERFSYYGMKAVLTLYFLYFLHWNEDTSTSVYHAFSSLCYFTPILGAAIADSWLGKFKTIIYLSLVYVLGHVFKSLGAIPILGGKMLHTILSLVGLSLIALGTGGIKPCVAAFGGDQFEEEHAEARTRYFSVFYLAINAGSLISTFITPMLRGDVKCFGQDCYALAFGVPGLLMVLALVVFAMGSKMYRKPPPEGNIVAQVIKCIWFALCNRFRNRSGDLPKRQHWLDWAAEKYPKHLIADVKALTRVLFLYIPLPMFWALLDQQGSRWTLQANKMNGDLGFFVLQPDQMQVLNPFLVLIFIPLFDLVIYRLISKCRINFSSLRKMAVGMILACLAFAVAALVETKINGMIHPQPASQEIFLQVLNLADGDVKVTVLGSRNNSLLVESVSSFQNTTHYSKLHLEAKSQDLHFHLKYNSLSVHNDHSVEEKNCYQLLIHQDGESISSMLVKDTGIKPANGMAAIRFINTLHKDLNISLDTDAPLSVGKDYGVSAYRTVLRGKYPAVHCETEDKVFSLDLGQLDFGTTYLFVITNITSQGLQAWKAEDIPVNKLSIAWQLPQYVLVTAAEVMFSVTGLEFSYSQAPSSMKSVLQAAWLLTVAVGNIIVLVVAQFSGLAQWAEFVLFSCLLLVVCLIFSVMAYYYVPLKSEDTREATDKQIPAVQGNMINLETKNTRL
Nature of the series: TP_TRANSPORTER: inhibition of Gly-Sar uptake (Gly-Sar: 5 uM) in SKPT cells.

Series [4] deals with T4, Solute carrier family 15 member 1 (Homo sapiens, UniProt P46059).
T4 sequence (P46059 whole entry): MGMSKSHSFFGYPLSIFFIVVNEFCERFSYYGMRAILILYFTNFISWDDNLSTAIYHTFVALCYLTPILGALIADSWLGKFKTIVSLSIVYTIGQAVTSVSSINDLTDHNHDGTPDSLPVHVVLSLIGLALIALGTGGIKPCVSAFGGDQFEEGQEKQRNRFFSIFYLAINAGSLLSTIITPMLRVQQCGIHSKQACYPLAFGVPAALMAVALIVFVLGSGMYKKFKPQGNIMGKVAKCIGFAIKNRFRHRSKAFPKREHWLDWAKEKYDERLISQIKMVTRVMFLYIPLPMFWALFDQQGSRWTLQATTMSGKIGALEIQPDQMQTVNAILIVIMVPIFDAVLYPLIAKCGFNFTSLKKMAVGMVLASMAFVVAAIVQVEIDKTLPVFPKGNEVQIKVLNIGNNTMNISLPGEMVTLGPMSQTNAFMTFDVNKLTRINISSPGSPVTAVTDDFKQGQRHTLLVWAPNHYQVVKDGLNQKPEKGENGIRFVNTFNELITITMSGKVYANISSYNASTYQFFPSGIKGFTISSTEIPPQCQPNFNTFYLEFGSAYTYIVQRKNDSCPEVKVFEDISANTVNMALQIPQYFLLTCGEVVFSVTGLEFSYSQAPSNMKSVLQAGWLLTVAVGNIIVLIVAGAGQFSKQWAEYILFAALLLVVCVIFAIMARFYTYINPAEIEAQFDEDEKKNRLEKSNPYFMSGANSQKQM
Kind of series: TP_TRANSPORTER: inhibition of Gly-Sar uptake (Gly-Sar: 5 uM) in Caco-2 cells.

The target in series [5] is T1, Solute carrier family 15 member 2 (Homo sapiens). Kind of series: TP_TRANSPORTER: inhibition of Gly-Sar uptake (Gly-Sar: 50 uM, Cefixime: 10000 uM) in PEPT2-expressing HeLa cells.
The target of series [6] is T2, Solute carrier family 15 member 1 (Homo sapiens). Nature of the series: TP_TRANSPORTER: inhibition of Gly-Sar uptake (Gly-Sar: 20 uM, Cefixime: 10000 uM) in PEPT1-expressing HeLa cells.
Series [7] deals with T3, Solute carrier family 15 member 2. Kind of series: TP_TRANSPORTER: inhibition of Gly-Sar uptake in SKPT cells.
Series [8] has as its target T4, Solute carrier family 15 member 1. Kind of series: TP_TRANSPORTER: inhibition of Gly-Sar uptake in PEPT1-expressing HeLa cells.
The target is the same in series [9]. Kind of series: TP_TRANSPORTER: inhibition of Gly-Sar uptake in Caco-2 cells.
Series [10] concerns the target T5, Solute carrier family 15 member 2 (Homo sapiens, UniProt Q16348).
T5 sequence (Q16348 whole entry): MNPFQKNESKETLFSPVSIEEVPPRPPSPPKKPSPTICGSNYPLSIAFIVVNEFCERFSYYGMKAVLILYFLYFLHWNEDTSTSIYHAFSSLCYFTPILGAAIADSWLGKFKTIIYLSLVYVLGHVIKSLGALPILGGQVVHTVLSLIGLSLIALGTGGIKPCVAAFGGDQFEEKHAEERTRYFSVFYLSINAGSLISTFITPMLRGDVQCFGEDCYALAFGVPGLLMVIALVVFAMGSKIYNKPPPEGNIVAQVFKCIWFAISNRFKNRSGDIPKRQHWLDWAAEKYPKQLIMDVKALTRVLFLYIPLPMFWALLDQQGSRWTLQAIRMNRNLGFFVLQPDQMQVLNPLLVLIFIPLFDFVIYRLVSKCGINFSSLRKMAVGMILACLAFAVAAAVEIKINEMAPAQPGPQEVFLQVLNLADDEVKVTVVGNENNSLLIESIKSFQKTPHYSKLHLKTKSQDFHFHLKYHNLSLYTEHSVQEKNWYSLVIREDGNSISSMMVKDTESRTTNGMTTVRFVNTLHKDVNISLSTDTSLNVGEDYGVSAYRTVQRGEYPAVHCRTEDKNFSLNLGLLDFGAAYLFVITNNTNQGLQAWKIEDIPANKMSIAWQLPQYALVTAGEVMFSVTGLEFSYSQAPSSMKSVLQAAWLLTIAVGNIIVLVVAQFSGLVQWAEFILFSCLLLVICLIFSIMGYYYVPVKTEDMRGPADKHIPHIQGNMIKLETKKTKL
Kind of series: TP_TRANSPORTER: inhibition of Gly-Sar uptake in PEPT2-expressing HeLa cells.

Substrate in series [11]: CN(CC(=O)O)C(=O)CN
Kind of series: TP_TRANSPORTER: uptake in SKPT cells.

The inhibition is the share of the control response that was lost under treatment. In general, IC50 refers to the concentration needed to halve the response being measured. Lower therefore signals greater potency in that assay. Take `C=CC1=C(C(=O)O)N2C(=O)[C@@H](NC(=O)/C(=N\O)c3csc(N)n3)[C@H]2SC1` [CEFDINIR]: the Activity in [1] is 0.48. Moreover, the inhibition in [2] was 31%. The molecule further gave an IC50 in [3] of 10000 µM.
For the molecule `C=CC1=C(C(=O)O)N2C(=O)[C@@H](NC(=O)/C(=N\OCC(=O)O)c3csc(N)n3)[C@H]2SC1` [CEFIXIME], the results for the 50% inhibitory concentration (IC50) in [4] and in series [3] were 10000 µM and 3200 µM, respectively. Moreover, the Activity in series [5] is 0.54. For the same molecule, in [6], the inhibition is 44%.
As a reminder, the Ki is the dissociation constant of the complex between target and ligand, obtained from inhibition or displacement. A higher Ki goes with a looser hold on the target. `Nc1nc(/C(=C/CC(=O)O)C(=O)N[C@@H]2C(=O)N3C(C(=O)O)=CCS[C@H]23)cs1` [CEFTIBUTEN]: the inhibitory constant (Ki) was found to be 380 µM in series [7], 710 µM in [8], 870 µM in series [9] and 90 µM in series [10].

B1: Solute carrier family 15 member 2 (Rattus norvegicus), Q63424 (protein)
chain: MNPFQKNESKETLFSPVSTEEMLPRPPSPPKKSPPKIFGSSYPVSIAFIVVNEFCERFSYYGMKAVLTLYFLYFLHWNEDTSTSVYHAFSSLCYFTPILGAAIADSWLGKFKTIIYLSLVYVLGHVFKSLGAIPILGGKMLHTILSLVGLSLIALGTGGIKPCVAAFGGDQFEEEHAEARTRYFSVFYLAINAGSLISTFITPMLRGDVKCFGQDCYALAFGVPGLLMVLALVVFAMGSKMYRKPPPEGNIVAQVIKCIWFALCNRFRNRSGDLPKRQHWLDWAAEKYPKHLIADVKALTRVLFLYIPLPMFWALLDQQGSRWTLQANKMNGDLGFFVLQPDQMQVLNPFLVLIFIPLFDLVIYRLISKCRINFSSLRKMAVGMILACLAFAVAALVETKINGMIHPQPASQEIFLQVLNLADGDVKVTVLGSRNNSLLVESVSSFQNTTHYSKLHLEAKSQDLHFHLKYNSLSVHNDHSVEEKNCYQLLIHQDGESISSMLVKDTGIKPANGMAAIRFINTLHKDLNISLDTDAPLSVGKDYGVSAYRTVLRGKYPAVHCETEDKVFSLDLGQLDFGTTYLFVITNITSQGLQAWKAEDIPVNKLSIAWQLPQYVLVTAAEVMFSVTGLEFSYSQAPSSMKSVLQAAWLLTVAVGNIIVLVVAQFSGLAQWAEFVLFSCLLLVVCLIFSVMAYYYVPLKSEDTREATDKQIPAVQGNMINLETKNTRL
What is called Km is the substrate concentration at which the rate is half of its maximum. B1: the Km in series [11] is 74.5 µM.
